Experimental data published in ChEMBL document CHEMBL3774316, “Design, synthesis and anti-HIV-1 evaluation of hydrazide-based peptidomimetics as selective gelatinase inhibitors” (Bioorg Med Chem, 2016).

Experiments:
[1] = Therapeutic index, ratio of CC50 for human C8166 cells to EC50 for HIV1 3B infected in human C8166 cells; format: cell-based; settings: read-out: Ratio CC50/EC50
[2] = molecular target: 72 kDa type IV collagenase (Homo sapiens, UniProt P08253); assay: Inhibition of gelatinase A (unknown origin) after 30 mins using succinylated gelatin as substrate
[3] = tested on: C8166; assay: Cytotoxicity against human C8166 cells after 72 hrs by MTT assay; format: functional; settings: C8166, 72 h
[4] = tested on: Human immunodeficiency virus 1; assay: Antiviral activity against HIV1 3B infected in human C8166 cells assessed as cytopathic effect by counting the number of syncytia by microscopy; format: functional, organism-based; settings: Human immunodeficiency virus 1, 3B
[5] = molecular target: T1, Aminopeptidase N (Sus scrofa, UniProt P15145); assay: Inhibition of porcine microsomal aminopeptidase N preincubated for 30 mins using L-Leu-p-nitroanilide as substrate by UV-VIS spectrophotometer
T1 sequence (P15145 whole entry): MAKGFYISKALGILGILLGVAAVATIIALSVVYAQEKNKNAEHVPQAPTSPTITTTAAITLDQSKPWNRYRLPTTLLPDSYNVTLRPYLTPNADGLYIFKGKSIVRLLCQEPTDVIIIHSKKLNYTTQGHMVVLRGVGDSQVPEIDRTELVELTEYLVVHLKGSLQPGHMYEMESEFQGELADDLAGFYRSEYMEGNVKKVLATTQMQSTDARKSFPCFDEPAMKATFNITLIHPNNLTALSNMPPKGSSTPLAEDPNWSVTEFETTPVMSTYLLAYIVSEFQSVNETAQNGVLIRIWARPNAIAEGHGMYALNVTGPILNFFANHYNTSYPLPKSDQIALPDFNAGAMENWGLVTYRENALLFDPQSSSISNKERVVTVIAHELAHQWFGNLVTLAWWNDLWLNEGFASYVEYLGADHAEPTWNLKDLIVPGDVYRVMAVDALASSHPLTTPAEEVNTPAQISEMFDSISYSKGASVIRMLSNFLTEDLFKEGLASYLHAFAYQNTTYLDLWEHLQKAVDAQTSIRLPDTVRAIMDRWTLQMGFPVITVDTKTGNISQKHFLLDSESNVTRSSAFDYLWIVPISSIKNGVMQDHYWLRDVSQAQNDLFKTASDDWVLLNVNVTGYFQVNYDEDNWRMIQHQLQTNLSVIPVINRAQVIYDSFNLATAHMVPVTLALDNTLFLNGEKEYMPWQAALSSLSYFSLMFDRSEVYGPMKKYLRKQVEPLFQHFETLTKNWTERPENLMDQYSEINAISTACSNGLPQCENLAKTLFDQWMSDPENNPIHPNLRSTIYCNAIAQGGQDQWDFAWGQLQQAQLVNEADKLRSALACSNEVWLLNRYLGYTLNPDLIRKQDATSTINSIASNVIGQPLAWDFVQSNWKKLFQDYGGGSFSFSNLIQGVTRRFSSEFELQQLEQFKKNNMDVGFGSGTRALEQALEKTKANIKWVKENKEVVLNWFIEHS

[6] = tested on: Human immunodeficiency virus 1; assay: Antiviral activity against HIV1 74V infected in human C8166 cells assessed as reduction in p24 antigen level incubated for 4 hrs followed by cell plating for 72 hrs by ELISA method; format: functional, organism-based; settings: Human immunodeficiency virus 1, 74V
[7] = tested on: Human immunodeficiency virus 1; assay: Antiviral activity against HIV1 3B infected in human C8166 cells assessed as reduction in p24 antigen level incubated for 2 hrs followed by cell plating for 72 hrs by ELISA method; format: functional, organism-based; settings: Human immunodeficiency virus 1, 3B
[8] = tested on: Human immunodeficiency virus 1; assay: Antiviral activity against HIV1 A17 infected in human C8166 cells assessed as reduction in p24 antigen level incubated for 4 hrs followed by cell plating for 72 hrs by ELISA method; format: functional, organism-based; settings: Human immunodeficiency virus 1, A17, C8166

Chain of 72 kDa type IV collagenase (P08253 whole entry): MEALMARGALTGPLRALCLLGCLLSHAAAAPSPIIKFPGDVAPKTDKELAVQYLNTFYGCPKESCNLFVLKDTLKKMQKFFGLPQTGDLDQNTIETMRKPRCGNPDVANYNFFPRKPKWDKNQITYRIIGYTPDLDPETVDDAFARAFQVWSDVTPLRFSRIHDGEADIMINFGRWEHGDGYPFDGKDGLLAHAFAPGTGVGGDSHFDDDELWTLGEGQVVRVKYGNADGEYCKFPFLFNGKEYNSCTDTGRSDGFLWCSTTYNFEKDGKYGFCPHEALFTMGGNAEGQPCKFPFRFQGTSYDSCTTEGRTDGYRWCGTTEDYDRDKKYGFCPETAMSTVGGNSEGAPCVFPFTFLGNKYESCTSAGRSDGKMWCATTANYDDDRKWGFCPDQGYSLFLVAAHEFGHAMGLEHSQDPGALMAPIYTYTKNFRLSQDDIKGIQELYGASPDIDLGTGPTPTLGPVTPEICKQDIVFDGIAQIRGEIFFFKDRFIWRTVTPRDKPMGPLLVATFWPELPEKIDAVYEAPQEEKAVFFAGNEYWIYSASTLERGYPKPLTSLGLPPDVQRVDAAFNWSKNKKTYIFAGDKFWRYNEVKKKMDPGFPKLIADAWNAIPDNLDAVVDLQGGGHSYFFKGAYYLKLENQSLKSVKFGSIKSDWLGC

Structure (SMILES)	selectivity ratio [1]	IC50 [2] [µM]	CC50 [3] [µM]	EC50 [4] [µM]	IC50 [5] [µM]	EC50 [6] [µM]	EC50 [7] [µM]	EC50 [8] [µM]
Cc1ccc(S(=O)(=O)N2CC3(C[C@H]2C(=O)N/N=C/c2ccccc2[N+](=O)[O-])SCCS3)cc1	1.9	0.24	65	32.9	> 1000	–	–	–
CC(=O)NNC(=O)Cn1c(=O)c(C)nc2ccccc21	–	> 500	> 730	> 730	328	–	–	–
COc1ccccc1/C=N/NC(=O)[C@@H]1CC2(CN1S(=O)(=O)c1ccc(C)cc1)SCCS2	7.6	28.5	388	51.1	> 1000	30	69.6	11.4
Cc1nc2ccccc2n(CC(=O)NNC(=O)c2ccc(Cl)cc2)c1=O	> 3.2	34.8	> 540	169	272	–	–	–
Cc1nc2ccccc2n(CC(=O)NNC(=O)c2c(Cl)cccc2Cl)c1=O	2.97	58.2	153	51.6	299	–	–	–
Cc1cn([C@H]2C[C@H](N=[N+]=[N-])[C@@H](CO)O2)c(=O)[nH]c1=O [ZIDOVUDINE]	589000	–	4680	0.00794	–	0.00152	0.00436	–
Cc1nc2ccccc2n(CC(=O)NNC(=O)Cc2ccccc2)c1=O	> 1.9	159	> 571	296	333	–	–	–
COc1ccc(/C=N/NC(=O)Cn2c(=O)c(C)nc3ccccc32)cc1OC	> 6.5	28.8	> 526	81	481	–	–	–
COc1cc(/C=N/NC(=O)[C@@H]2CC3(CN2S(=O)(=O)c2ccc(C)cc2)SCCS3)cc(OC)c1OC	8.5	210	327	38.5	> 1000	96	65.1	38.7
Cc1nc2ccccc2n(CC(=O)N/N=C/c2ccc([N+](=O)[O-])cc2)c1=O	> 7.7	246	> 548	42.1	644	–	–	–
COc1cc(/C=N/NC(=O)Cn2c(=O)c(C)nc3ccccc32)cc(OC)c1OC	> 5.9	223	> 488	83	57.6	–	–	–
COc1ccc(/C=N/NC(=O)Cn2c(=O)c(C)nc3ccccc32)c(OC)c1	> 4.2	74.9	> 526	126	243	–	–	–
Cc1ccc(S(=O)(=O)N2CC3(C[C@H]2C(=O)N/N=C/c2ccccc2Cl)SCCS3)cc1	> 13.3	0.64	> 404	30.3	> 1000	93.6	149	18.2
Cc1nc2ccccc2n(CC(=O)N/N=C/c2ccccc2)c1=O	> 5.2	67	> 625	121	341	–	–	–
Cc1ccc(S(=O)(=O)N2CC3(C[C@H]2C(=O)N/N=C/c2ccccc2F)SCCS3)cc1	7.2	1.89	280	38.8	> 1000	–	–	–
Cc1ccc(S(=O)(=O)N2CC3(C[C@H]2C(=O)N/N=C/c2cccc([N+](=O)[O-])c2)SCCS3)cc1	> 24.6	1.05	> 395	16	> 1000	5.07	3.89	9.94
Cc1nc2ccccc2n(CC(=O)N/N=C/Cc2ccccc2)c1=O	> 7.2	36	> 599	82.8	223	–	–	–
Cc1nc2ccccc2n(CC(=O)N/N=C/c2ccc(N(C)C)cc2)c1=O	2.2	64.3	355	159	331	–	–	–

Structure (SMILES)	selectivity ratio [1]	IC50 [2] [µM]	CC50 [3] [µM]	EC50 [4] [µM]	IC50 [5] [µM]	EC50 [6] [µM]	EC50 [7] [µM]	EC50 [8] [µM]
Cc1nc2ccccc2n(CC(=O)NN)c1=O	–	98	> 862	> 862	257	–	–	–
Cc1ccc(S(=O)(=O)N2CC3(C[C@H]2C(=O)N/N=C/c2ccccc2Br)SCCS3)cc1	6.3	0.41	177	28	> 1000	30.6	33.4	18.3
Cc1ccc(/C=N/NC(=O)Cn2c(=O)c(C)nc3ccccc32)cc1	5.1	38.6	262	51.3	307	–	–	–
C/C(=N\NC(=O)Cn1c(=O)c(C)nc2ccccc21)c1ccc([N+](=O)[O-])cc1	> 3.6	90.8	> 528	145	389	–	–	–
COc1cccc(/C=N/NC(=O)Cn2c(=O)c(C)nc3ccccc32)c1O	41.3	7.17	115	2.79	80.9	3.48	6.05	2.46
Cc1ccc(S(=O)(=O)N2CC3(C[C@H]2C(=O)N/N=C/c2ccc(N(C)C)cc2)SCCS3)cc1	> 10.5	5.52	> 397	37.7	> 1000	56.3	75.6	74
Cc1nc2ccccc2n(CC(=O)NNC(=O)c2ccccc2)c1=O	–	187	> 595	273	–	–	–	–
C/C(=N\NC(=O)Cn1c(=O)c(C)nc2ccccc21)c1ccccc1	8.9	9.39	491	54.9	99.9	–	–	–
Cc1nc2ccccc2n(CC(=O)N/N=C/c2ccco2)c1=O	> 2.1	17.2	> 645	301	103	–	–	–
O=C1Nc2ccc(Cl)cc2[C@@](C#CC2CC2)(C(F)(F)F)O1 [EFAVIRENZ]	–	–	–	–	–	–	–	184
COc1ccc(/C=C/C(=O)N2C[C@@H](NC(=O)c3cccnc3)C[C@H]2C(=O)NO)cc1OC	> 13.8	–	> 454	33	117	–	–	–
Cc1ccc(/C=N/NC(=O)[C@@H]2CC3(CN2S(=O)(=O)c2ccc(C)cc2)SCCS3)cc1	> 10.4	36.8	> 421	40.5	> 1000	> 200	39.3	> 200
C/C(=N\NC(=O)Cn1c(=O)c(C)nc2ccccc21)c1ccc(Cl)cc1	–	13.2	> 543	> 543	125	–	–	–
C/C(=N\NC(=O)Cn1c(=O)c(C)nc2ccccc21)c1cccc(Cl)c1	–	567	> 543	> 543	> 1000	–	–	–
C/C(=N\NC(=O)Cn1c(=O)c(C)nc2ccccc21)c1ccccc1Cl	–	112	> 543	> 543	439	–	–	–
Cc1ccc(S(=O)(=O)N2CC3(C[C@H]2C(=O)NN)SCCS3)cc1	> 2.2	–	> 519	239	> 1000	–	–	–
Cc1nc2ccccc2n(CC(=O)N/N=C/c2ccc(Cl)cc2)c1=O	> 17.5	81	> 565	32.2	449	–	–	–
